# Patent publication US8404707B2, “Imidazo [1, 2-a] pyrrolo [3, 2-c] pyridine compounds useful as pestivirus inhibitors” (Universite d'Auvergne Clermont 1, priority 2006, dated 2013)
# Like-named read-outs stand apart in the source and are kept apart here.
# Experiments:
# BVDV-1 (strain PE515) = assay: Anti-BVDV assay (protection of MDBK cell monolayer from virus-induced cytopathic effect, MTS readout); format: cell-based, Bovine Viral Diarrhea virus; conditions: for EC50: Bovine viral diarrhea virus isolates and strains, MDBK, 120 h, BVDV-1 in MDBK cells, 5 days incubation, concentration that protects 50% of the cell monolayer from virus-induced cytopathic effect; for SI: Selectivity index (ratio of CC50 to EC50): CC50 (MDBK cells) / EC50 (BVDV)
# Protocol: (§1) Madin-Darbey Bovine Kidney (MDBK) cells were maintained in Dulbecco's modified Eagle medium (DMEM) supplemented with BVDV-free 5% fetal calf serum (DMEME-FCS) at 37° C. in a humidified, 5% CO2 atmosphere. BVDV-1 (strain PE515) was used to assess the antiviral activity in MDBK cells.
# Ninety-six-well cell culture plates were seeded with MDBK cells in DMEM-FCS so that cells reached 24 hr later confluency. Then medium was removed and serial 5-fold dilutions of the test compounds were added in a total volume of 100 μl, after which the virus inoculum (100 μl) was added to each well. […] Uninfected cells and cells receiving virus without compound were included in each assay plate. After 5 days, medium was removed and 90 μl of DMEM-FCS and 10 μl of MTS/PMS solution (Promega) was added to each well. Following a 2 hr incubation period at 37° C. the optical density of the wells was read at 498 nm in a microplate reader.
# [1] = Determination of cytostatic effect on MDBK cells (MTS method); format: cell-based, Bovine; conditions: bovine, MDBK cells (exponentially growing), 3 days incubation, 50% cytostatic concentration
# Protocol: as §1
# (§2) The effect of the drugs on exponentially growing MDBK cells was assessed as follows. Cells were seeded at a density of 5000 cell/well in 96 well plates in MEM medium (Gibco) supplemented with 10% fetal calf serum, 2 mM L-glutamine (Life Technologies) and bicarbonate (Life Technologies). Cells, were cultured for 24 hr after which serial dilutions of the test compounds were added. Cultures were then again further incubated for 3 days after which the effect on cell growth was quantified by means of the MTS method (Promega). The concentration that results in 50% inhibition of cell growth is defined as the 50% cytostatic concentration (CC50)
# MDBK cells = assay: as above; format: cell-based, Bovine; conditions: exponentially growing MDBK cells, 3 days incubation; 50% cytostatic concentration
# Protocol: as §1, §2
Structure (SMILES),melting point,EC50 (BVDV-1 (strain PE515); read-out: EC50),SI: Selectivity index (ratio of CC50 to EC50) (BVDV-1 (strain PE515)),CC50 at 3 days [1],EC50 (BVDV-1 (strain PE515)),CC50 (MDBK cells)
CCOC(=O)c1cc2c3n(ccc-2n1)CC(CCl)=N3,270 to 272 °C,,,,,
CCOC(=O)n1c(-c2ccc(OC)cc2)cc2c1ccn1cc(C)nc21,158 to 159 °C,,,,,
COc1ccc(-c2cc3c4n(ccc-3n2)CC(C)=N4)cc1,168 °C,,,,,
CCCCc1cc2c3n(ccc-2n1)CC(C)=N3,162 °C,,,,,
CCOC(=O)c1cc2c3n(ccc-2n1)CC(c1cccc(OC)c1)=N3,198 to 200 °C,,,,,
"CCOC(=O)c1cc2c3n(ccc-2n1)CC(C)=N3 [Compound 7b, Ethyl 2-methylimidazo[1,2-a]pyrrolo[3,2-c]pyridine-8-carboxylate]",201 to 203 °C,0.8 µg/mL,±81,65 µg/mL,,
"CCOC(=O)c1cc2c3n(ccc-2n1)CC(C(F)(F)F)=N3 [Compound 7e, Ethyl 2-trifluoromethylimidazo[1,2-a]pyrrolo[3,2-c]pyridine-8-carboxylate]",230 to 231 °C,,±33,> 50 µg/mL,1.5 µg/mL,
"CCOC(=O)c1cc2c3n(ccc-2n1)CC(C(C)C)=N3 [Compound 7f, Ethyl 2-isopropylimidazo[1,2-a]pyrrolo[3,2-c]pyridine-8-carboxylate]",207 to 209 °C,0.6 µg/mL,±36,22 µg/mL,,
"CCOC(=O)c1cc2c3n(ccc-2n1)CC(C(OCC)OCC)=N3 [Compound 7h, Ethyl 2-diethoxymethylimidazo[1,2-a]pyrrolo[3,2-c]pyridine-8-carboxylate]",242 to 244 °C,3 µg/mL,±7,22 µg/mL,,
"CCOC(=O)c1cc2c3n(ccc-2n1)CC(Br)=N3 [Compound 7i, Ethyl 2-bromoimidazo[1,2-a]pyrrolo[3,2-c]pyridine-8-carboxylate]",,1.5 µg/mL,>33,> 50 µg/mL,,
"CCOC(=O)c1cc2c(ccn3cc(CN(C)C)nc23)[nH]1 [Compound 9, Ethyl 2-N,N dimethylaminomethylimidazo[1,2-a]pyrrolo[3,2-c]pyridine-8-carboxylate]",,,,,3 µg/mL,
"CCOC(=O)c1cc2c3n(ccc-2n1)CC(CO)=N3 [Compound 11, Ethyl 2-hydroxymethylimidazo[1,2-a]pyrrolo[3,2-c]pyridine-8-carboxylate]",227 to 229 °C,9 µg/mL,±10,87 µg/mL,,
"CC1=Nc2c3cc(C(=O)O)nc-3ccn2C1 [Compound 15, 2-Methylimidazo[1,2-a]pyrrolo[3,2-c]pyridine-8-carboxylic acid]",,0.5 µg/mL,,> 100 µg/mL,,>100 µg/mL
"CCOC(=O)n1c(-c2ccc(F)cc2)cc2c1ccn1cc(C)nc21 [Compound 26b, Ethyl 8-(4-fluorophenyl)-2-methylimidazo[1,2-a]pyrrolo[3,2-c]pyridine-7-carboxylate]",175 °C,1.25 µg/mL,±6,7.9 µg/mL,,
"CC1=Nc2c3cc(-c4ccc(F)cc4)nc-3ccn2C1 [Compound 27b, 8-(4-fluorophenyl)-2-methylimidazo[1,2-a]pyrrolo[3,2-c]pyridine]",,1.27 µg/mL,±37,47.5 µg/mL,,
